Experimental findings from ChEMBL document CHEMBL4433199, “First-in-class allosteric inhibitors of bacterial IMPDHs” (Eur J Med Chem, 2019) are described below.

Experiment [1] has as its target T1, Inosine-5'-monophosphate dehydrogenase (Pseudomonas aeruginosa (strain ATCC 15692 / DSM 22644 / CIP 104116 / JCM14847 / LMG 12228 / 1C / PRS 101 / PAO1)) (UniProt Q9HXM5).
T1 sequence (whole entry): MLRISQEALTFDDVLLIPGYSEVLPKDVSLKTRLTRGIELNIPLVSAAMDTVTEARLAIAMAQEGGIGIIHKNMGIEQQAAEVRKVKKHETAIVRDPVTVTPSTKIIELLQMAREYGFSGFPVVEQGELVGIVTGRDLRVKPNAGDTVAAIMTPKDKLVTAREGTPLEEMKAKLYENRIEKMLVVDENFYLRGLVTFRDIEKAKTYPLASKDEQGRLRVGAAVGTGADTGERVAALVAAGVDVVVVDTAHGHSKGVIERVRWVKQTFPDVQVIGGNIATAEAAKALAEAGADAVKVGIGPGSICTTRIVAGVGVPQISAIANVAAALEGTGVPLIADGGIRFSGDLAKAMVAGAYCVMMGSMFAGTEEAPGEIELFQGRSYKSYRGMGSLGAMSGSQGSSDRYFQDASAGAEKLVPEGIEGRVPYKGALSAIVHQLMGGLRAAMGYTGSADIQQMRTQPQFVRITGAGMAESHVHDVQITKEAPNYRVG
Put plainly: Competitive inhibition of Pseudomonas aeruginosa IMPDH using IMP as substrate and NAD+ in presence of varying ATP incubated for 70 secs.

Experiment [2] deals with T1, Inosine-5'-monophosphate dehydrogenase (Pseudomonas aeruginosa (strain ATCC 15692 / DSM 22644 / CIP 104116 / JCM14847 / LMG 12228 / 1C / PRS 101 / PAO1)). Put plainly: Inhibition of Pseudomonas aeruginosa IMPDH at 41.5 uM using IMP as substrate in the presence of NAD+ incubated for 70 secs relative to control.
The target in experiment [3] is T2, Inosine-5'-monophosphate dehydrogenase (Pseudomonas aeruginosa (strain ATCC 15692 / DSM 22644 / CIP 104116 / JCM14847 / LMG 12228 / 1C / PRS 101 / PAO1), UniProt Q9HXM5).
T2 sequence (Q9HXM5 whole entry): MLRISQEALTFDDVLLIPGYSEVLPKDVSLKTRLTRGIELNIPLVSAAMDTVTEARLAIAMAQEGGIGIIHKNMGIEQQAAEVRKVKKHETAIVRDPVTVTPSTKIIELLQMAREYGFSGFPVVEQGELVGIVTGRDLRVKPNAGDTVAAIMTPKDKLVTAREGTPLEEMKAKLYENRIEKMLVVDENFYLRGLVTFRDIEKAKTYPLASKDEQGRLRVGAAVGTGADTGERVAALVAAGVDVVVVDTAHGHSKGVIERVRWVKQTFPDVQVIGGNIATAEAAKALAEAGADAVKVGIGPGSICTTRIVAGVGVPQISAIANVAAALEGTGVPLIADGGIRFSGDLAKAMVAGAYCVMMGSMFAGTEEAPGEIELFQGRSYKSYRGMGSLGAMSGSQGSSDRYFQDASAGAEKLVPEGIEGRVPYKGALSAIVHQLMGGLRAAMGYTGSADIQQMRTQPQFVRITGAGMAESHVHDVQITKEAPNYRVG
Put plainly: Inhibition of Pseudomonas aeruginosa IMPDH using IMP as substrate in the presence of NAD+ incubated for 70 secs.

Experiment [4] concerns the target T1, Inosine-5'-monophosphate dehydrogenase (Pseudomonas aeruginosa (strain ATCC 15692 / DSM 22644 / CIP 104116 / JCM14847 / LMG 12228 / 1C / PRS 101 / PAO1)). In words: Inhibition of Pseudomonas aeruginosa IMPDH at 50.8 uM using IMP as substrate in the presence of NAD+ incubated for 70 secs relative to control.
Experiment [5] has the same target. Put plainly: Non-competitive inhibition of Pseudomonas aeruginosa IMPDH using IMP as substrate and NAD+ in presence of ATP incubated for 70 secs.
For experiment [6] the target is unchanged. In words: Inhibition of Pseudomonas aeruginosa IMPDH at 40.7 uM using IMP as substrate in the presence of NAD+ incubated for 70 secs relative to control.
Experiment [7] has the same target. Put plainly: Inhibition of Pseudomonas aeruginosa IMPDH at 49.8 uM using IMP as substrate in the presence of NAD+ incubated for 70 secs relative to control.
For experiment [8] the target is unchanged. In words: Inhibition of Pseudomonas aeruginosa IMPDH at 44.7 uM using IMP as substrate in the presence of NAD+ incubated for 70 secs relative to control.
For experiment [9] the target is unchanged. In words: Inhibition of Pseudomonas aeruginosa IMPDH at 37.1 uM using IMP as substrate in the presence of NAD+ incubated for 70 secs relative to control.
The target is the same in experiment [10]. In words: Inhibition of Pseudomonas aeruginosa IMPDH assessed as Km for IMP at 10 uM using IMP as substrate in presence of 2 mM NAD+ and 0.2 mM MgATP (reference value: 483 +/- 65 microM).
The target is the same in experiment [11]. Put plainly: Inhibition of Pseudomonas aeruginosa IMPDH at 39.6 uM using IMP as substrate in the presence of NAD+ incubated for 70 secs relative to control.
Experiment [12] has the same target. Put plainly: Inhibition of Pseudomonas aeruginosa IMPDH at 43.1 uM using IMP as substrate in the presence of NAD+ incubated for 70 secs relative to control.
The target is the same in experiment [13]. In words: Inhibition of Pseudomonas aeruginosa IMPDH at 55.9 uM using IMP as substrate in the presence of NAD+ incubated for 70 secs relative to control.
The target is the same in experiment [14]. Put plainly: Inhibition of Pseudomonas aeruginosa IMPDH at 54.6 uM using IMP as substrate in the presence of NAD+ incubated for 70 secs relative to control.
Experiment [15] shares this target. Put plainly: Inhibition of Pseudomonas aeruginosa IMPDH at 55.6 uM using IMP as substrate in the presence of NAD+ incubated for 70 secs relative to control.

Active and inactive are the calls of the source. The rule behind the calls is not given here.

One may read the inhibition as the relative decrease from the control value, in per cent. In general, IC50 refers to the concentration that gives 50% inhibition. On to `COc1ccc(Br)cc1-c1cc(C(=O)O)nc2[nH]nc(-c3ccc(C)cc3)c12`, for which, in experiment [1], the inhibition result is “Active”. Also, in experiment [2], the inhibition was 79.9%. In addition, the IC50 in experiment [3] (read-out: IC50) amounted to 11.7 µM.

On to `COc1ccccc1-c1noc(CCC(=O)Nc2ccc(Cl)cc2)n1`, for which, in experiment [4], the inhibition came to 70.6%. Besides, in [3] (read-out: IC50), the IC50 turned out to be 2.6 µM. For the same compound, the inhibition entry in experiment [5] is “Active”.

With `O=C(O)c1cc(-c2cc(Br)ccc2F)c2c(-c3ccc(Cl)cc3)n[nH]c2n1`, the inhibition in experiment [6] was 71.6%. Besides, the inhibition entry in experiment [1] is “Active”. The IC50 in experiment [3] (read-out: IC50) was found to be 7.4 µM.

In the case of `COc1ccc(-n2c(=O)[nH]cc(C(=O)Nc3cc(C)ccc3C)c2=O)cc1`, in [7], the inhibition stood at 108%. Also, the IC50 result in experiment [3] is reported as “Not Active”.

With `CC(=O)Nc1ccc(-c2cc(C(=O)O)nc3[nH]nc(-c4ccc(Cl)cc4)c23)cc1`, the inhibition in experiment [8] was determined as 73.2%. Besides, in experiment [1], the inhibition entry was “Active”. Besides, the IC50 in [3] (read-out: IC50) is 19 µM.

`CC(=O)Nc1ccc(C2C3=C(Nc4c2c(=O)[nH]c(=O)n4Cc2ccccc2)c2ccccc2C3=O)cc1` (configuration not stated): in experiment [9], the inhibition is 93.8%. Besides, the inhibition entry in experiment [1] is “Active”. Besides, the K0.5 in [10] is 1310 µM. The half-maximal inhibitory concentration (IC50) in experiment [3] (read-out: IC50) amounted to 2.8 µM.

As to `COc1ccc(-c2cc(C(=O)O)nc3[nH]nc(-c4ccc(C)cc4)c23)cc1Br`, the inhibition result in [1] was “Active”. Also, in experiment [11], the inhibition amounted to 83.1%. Moreover, in experiment [3] (read-out: IC50), the IC50 came out at 11.7 µM.

Consider `CN(Cc1ccccc1)Cc1nc2c(c(=O)n(C)c(=O)n2C)n1Cc1ccccc1F`, for which the inhibition in experiment [12] was 93.3%. Besides, the IC50 entry in [3] is “Not Active”.

Take `COc1cccc(CNC(=O)Cn2ncc3ccccc32)c1OC`: the IC50 entry in experiment [3] is on record as “Not Active”. Further, in experiment [13], the inhibition stood at 95.2%.

Consider `N#CC1=C(N)Oc2[nH]c(=O)[nH]c(=O)c2C1c1ccc([N+](=O)[O-])s1` (configuration not stated), for which the inhibition in experiment [14] came out at 85.7%. The inhibition result in [1] was “Active”. Further, the 50% inhibitory concentration (IC50) in experiment [3] (read-out: IC50) was 4 µM.

For `N#CC1=C(N)Oc2[nH]c(=O)[nH]c(=O)c2C1c1ccc([N+](=O)[O-])cc1` (configuration not stated), in experiment [1], the inhibition result is “Active”. Moreover, the K0.5 in experiment [10] amounted to 691 µM. Further, the inhibition in [15] turned out to be 87.8%. For the same compound, the IC50 in experiment [3] (read-out: IC50) came out at 7 µM.
